Assay [1] concerns the target dopamine transporter (DAT) (Homo sapiens, UniProt Q01959). The assay is described as follows: cell-based.
Assay [2] deals with norepinephrine transporter (NET) (Homo sapiens, UniProt P23975). The assay is described as follows: cell-based. The class given is cell-based.
For assay [3], the target named is 5-HT2B serotonin receptors (Homo sapiens, UniProt P41595). The assay is described as follows: Radioligand binding assay. To be noted: for Ki: 5-HT2B receptor affinity Ki.
Another assay has as its target SERT (Homo sapiens, UniProt P31645). The assay is described as follows: Radioligand binding assay.
For assay [4], the target named is serotonin transporter (SERT) (Homo sapiens, UniProt P31645). The assay is described as follows: cell-based. The class given is cell-based.
The target in another assay is DAT (Homo sapiens, UniProt Q01959). The assay is described as follows: Radioligand binding assay.
Assay [5] addresses human cloned 5-HT2B receptor (Homo sapiens, UniProt P41595). The assay is described as follows: 5-HT2B functional assay, intracellular Ca++ mobilization. The class given is cell-based. Conditions: HEK-T cells.
In another assay the target is T1, α2C adrenoceptors (Homo sapiens, UniProt P18825).
T1 sequence (P18825 1-462): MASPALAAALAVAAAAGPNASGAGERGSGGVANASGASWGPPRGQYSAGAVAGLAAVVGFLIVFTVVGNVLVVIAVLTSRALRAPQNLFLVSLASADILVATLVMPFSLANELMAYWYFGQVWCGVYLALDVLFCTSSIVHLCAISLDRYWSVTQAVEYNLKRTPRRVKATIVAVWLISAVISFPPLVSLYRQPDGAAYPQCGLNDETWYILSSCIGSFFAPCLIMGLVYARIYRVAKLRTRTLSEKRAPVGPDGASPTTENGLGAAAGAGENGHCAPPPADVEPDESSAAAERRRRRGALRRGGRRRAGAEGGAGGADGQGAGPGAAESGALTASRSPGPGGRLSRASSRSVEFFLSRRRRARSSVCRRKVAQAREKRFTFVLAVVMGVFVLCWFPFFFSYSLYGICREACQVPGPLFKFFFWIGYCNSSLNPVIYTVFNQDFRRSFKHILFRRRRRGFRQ
The assay is described as follows: Radioligand binding assay. To be noted: α2C adrenoceptor affinity Ki.

For assay [6], the system named is serotonin uptake in rat brain synaptosomes. To be noted: ref Martinez-Clemente et al (2011); cited from earlier work.
Assay [7] deals with dopamine uptake in rat brain synaptosomes. To be noted: ref Martinez-Clemente et al (2011); cited from earlier work.
The next assay addresses NET (Homo sapiens, UniProt P23975). The assay is described as follows: Radioligand binding assay.
The mark [8] stands for this setting: DAT Ki, inhibition of transporter uptake activity.
Where [9] appears, read: DAT pKi (mean +/- S.E.M), inhibition of transporter uptake activity, N=3.
The mark [10] stands for this setting: NET Ki, inhibition of transporter uptake activity.
The mark [11] stands for this setting: SERT Ki, inhibition of transporter uptake activity.
Where [12] appears, read: inhibition of transporter uptake activity.
The mark [13] stands for this setting: NET pKi (mean +/- S.E.M), inhibition of transporter uptake activity, N=3.
Setting [14] is: SERT pKi (mean +/- S.E.M), inhibition of transporter uptake activity, N=3.
[15] abbreviates: inhibition of transporter uptake activity, N=3.

By Ki is commonly meant the dissociation constant of the complex between target and ligand, obtained from inhibition or displacement.

Several values for one entry are separate records, joined by “and”; a condition that tells them apart may be missing. Identical values can stand only once. Counter-ions that a name gives are not always drawn. Like-named read-outs stand apart in the source and are kept apart here. Where only a bound is given, the exact number is not on record here.

Sequence of serotonin transporter (SERT) (P31645 whole entry): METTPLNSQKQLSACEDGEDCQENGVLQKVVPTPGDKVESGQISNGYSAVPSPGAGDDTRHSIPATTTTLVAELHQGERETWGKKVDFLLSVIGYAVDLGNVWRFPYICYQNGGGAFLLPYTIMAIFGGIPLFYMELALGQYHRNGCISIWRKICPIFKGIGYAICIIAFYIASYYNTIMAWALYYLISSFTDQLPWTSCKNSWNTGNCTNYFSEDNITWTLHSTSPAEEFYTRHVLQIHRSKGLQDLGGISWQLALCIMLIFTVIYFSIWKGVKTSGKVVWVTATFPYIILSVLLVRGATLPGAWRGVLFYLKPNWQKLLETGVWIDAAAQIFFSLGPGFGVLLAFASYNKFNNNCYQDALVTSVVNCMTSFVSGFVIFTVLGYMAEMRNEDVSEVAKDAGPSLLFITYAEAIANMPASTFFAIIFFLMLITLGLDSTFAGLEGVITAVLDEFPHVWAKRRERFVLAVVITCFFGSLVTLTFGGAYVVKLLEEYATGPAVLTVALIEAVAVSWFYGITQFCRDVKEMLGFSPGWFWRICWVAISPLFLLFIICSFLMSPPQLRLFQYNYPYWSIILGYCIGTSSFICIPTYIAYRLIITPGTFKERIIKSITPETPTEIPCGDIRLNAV
Sequence of dopamine transporter (DAT) (Q01959 whole entry): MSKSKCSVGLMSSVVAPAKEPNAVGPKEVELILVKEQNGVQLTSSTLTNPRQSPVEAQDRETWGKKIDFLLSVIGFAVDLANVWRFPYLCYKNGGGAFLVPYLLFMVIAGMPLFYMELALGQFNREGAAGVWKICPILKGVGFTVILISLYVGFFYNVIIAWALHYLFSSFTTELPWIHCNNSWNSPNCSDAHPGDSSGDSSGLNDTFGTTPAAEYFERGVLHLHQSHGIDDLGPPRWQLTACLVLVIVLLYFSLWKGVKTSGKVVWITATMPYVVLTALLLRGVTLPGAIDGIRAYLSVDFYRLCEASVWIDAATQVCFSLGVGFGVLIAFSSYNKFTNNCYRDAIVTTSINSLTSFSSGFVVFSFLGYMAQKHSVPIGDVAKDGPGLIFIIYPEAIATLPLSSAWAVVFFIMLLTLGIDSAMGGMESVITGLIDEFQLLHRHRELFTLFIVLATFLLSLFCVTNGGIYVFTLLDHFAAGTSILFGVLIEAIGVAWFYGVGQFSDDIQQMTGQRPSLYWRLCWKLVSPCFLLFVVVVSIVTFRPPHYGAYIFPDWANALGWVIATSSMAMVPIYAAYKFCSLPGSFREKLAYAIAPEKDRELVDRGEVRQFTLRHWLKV
Sequence of norepinephrine transporter (NET) (P23975 whole entry): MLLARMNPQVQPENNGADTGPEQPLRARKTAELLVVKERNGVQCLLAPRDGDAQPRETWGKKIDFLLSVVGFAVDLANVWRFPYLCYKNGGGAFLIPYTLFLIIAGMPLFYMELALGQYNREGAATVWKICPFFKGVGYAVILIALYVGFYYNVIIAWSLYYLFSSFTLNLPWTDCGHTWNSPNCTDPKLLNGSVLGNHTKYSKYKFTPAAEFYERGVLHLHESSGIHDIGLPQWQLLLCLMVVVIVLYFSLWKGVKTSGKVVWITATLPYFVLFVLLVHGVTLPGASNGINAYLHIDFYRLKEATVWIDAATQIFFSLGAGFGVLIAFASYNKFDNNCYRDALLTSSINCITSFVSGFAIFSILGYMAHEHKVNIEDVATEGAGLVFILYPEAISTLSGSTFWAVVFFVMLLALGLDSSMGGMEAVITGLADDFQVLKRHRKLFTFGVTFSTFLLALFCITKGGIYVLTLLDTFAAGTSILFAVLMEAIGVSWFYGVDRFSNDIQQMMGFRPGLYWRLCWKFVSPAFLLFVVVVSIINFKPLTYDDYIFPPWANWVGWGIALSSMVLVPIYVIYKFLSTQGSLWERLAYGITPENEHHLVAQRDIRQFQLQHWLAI
Sequence of 5-HT2B serotonin receptors (P41595 whole entry): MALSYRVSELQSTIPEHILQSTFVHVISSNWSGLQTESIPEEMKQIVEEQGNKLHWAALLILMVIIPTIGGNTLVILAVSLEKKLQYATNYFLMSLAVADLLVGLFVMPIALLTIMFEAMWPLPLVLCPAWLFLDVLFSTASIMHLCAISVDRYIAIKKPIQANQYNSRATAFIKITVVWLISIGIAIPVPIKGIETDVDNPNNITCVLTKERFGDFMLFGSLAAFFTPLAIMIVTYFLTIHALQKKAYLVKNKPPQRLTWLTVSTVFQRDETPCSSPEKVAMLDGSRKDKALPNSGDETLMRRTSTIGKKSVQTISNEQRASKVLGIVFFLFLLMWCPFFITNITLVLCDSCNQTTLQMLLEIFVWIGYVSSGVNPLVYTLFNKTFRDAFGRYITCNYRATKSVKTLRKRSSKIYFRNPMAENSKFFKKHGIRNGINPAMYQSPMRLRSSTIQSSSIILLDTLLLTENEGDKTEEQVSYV
Sequence of human cloned 5-HT2B receptor (P41595 whole entry): as above
Sequence of SERT (P31645 whole entry): as the sequence (P31645 whole entry) above
Sequence of DAT (Q01959 whole entry): as the sequence (Q01959 whole entry) above
Sequence of NET (P23975 whole entry): as the sequence (P23975 whole entry) above

In the case of `CCCC(C(=O)c1cccc2ccccc12)N1CCCC1.Cl` (stereo not drawn) [1-Naphyrone, 1-naphthalen-1-yl-2-pyrrolidin-1-ylpentan-1-one hydrochloride], in assay [1], the “DAT Ki” value is recorded as “submicromolar”. Besides, the inhibition constant Ki in [1] (DAT Ki) was below 100 nM; in assay [1] (setting [8]), 48 nM; in assay [1] (setting [9]), 47.9 nM; in assay [2] (setting [10]), 536 nM; on SERT, below 100 nM; in assay [4] (setting [11]), 352 nM. Besides, in assay [2], the “NET Ki” value is reported as “submicromolar”. For the same molecule, the “5-HT2B receptor affinity Ki” value in assay [3] is given as “submicromolar”. Besides, the “SERT Ki” value in [4] is on record as “submicromolar”.

For the molecule `CC(N)Cc1ccc2occc2c1.Cl` (stereo not drawn) [5-APB, 1-(benzofuran-5-yl)propan-2-amine hydrochloride], the inhibition constant Ki on DAT is below 100 nM; in assay [1] (setting [8]) it was 265 nM; in [1] (setting [9]) it was 501 nM; in assay [2] (setting [10]), 180 nM; in [2] (setting [13]), 468 nM; in assay [3], < 100 nM and 14 nM. Moreover, the Ki at α2C adrenoceptors was below 100 nM; in assay [4] (setting [11]), 811 nM; in [4] (setting [14]), 1660 nM. For the same molecule, the “DAT Ki” value in [1] (setting [12]) is on record as “submicromolar”. Also, the “NET Ki” value in assay [2] (setting [12]) is listed as “submicromolar”. Besides, in assay [5], the “5-HT2B agonist EC50” value was “nanomolar”. Also, in assay [5], the 5-HT2B agonist activity result is listed as “potent full agonists”. The “SERT Ki” value in [4] (setting [12]) is on record as “submicromolar”.

Regarding `NC1Cc2ccc(I)cc2C1` (stereo not drawn) [5-iod-2-aminoindane, 5-iodo-2,3-dihydro-1H-inden-2-amine hydrochloride], the Ki is 1590 nM in assay [1] (setting [8]); 2450 nM in assay [1] (setting [9]); 311 nM in assay [2] (setting [10]); 813 nM in [2] (setting [13]); 879 nM in [4] (setting [11]); 1780 nM in assay [4] (setting [14]).

Regarding `CC(N)Cc1ccc2ccoc2c1.Cl` (stereo not drawn) [6-APB, 1-(benzofuran-6-yl)propan-2-amine hydrochloride], the Ki in [1] (setting [8]) was 150 nM; in assay [1] (setting [9]), 234 nM; in [2] (setting [10]), 117 nM; in [2] (setting [13]), 302 nM; in [3], 3.7 nM; at α2C adrenoceptors it was 45 nM. The values for the inhibition constant (Ki) in [4] (setting [11]) and in [4] (setting [14]) were 2700 nM and 5500 nM, respectively. For the same molecule, the “5-HT2B agonist EC50” value in [5] is listed as “nanomolar”. Besides, in [5], the 5-HT2B agonist activity result is given as “potent full agonists”.

As to `CN[C@@H](C)Cc1ccc2c(c1)OCO2` [(+)-MDMA, 3,4-methylenedioxymethamphetamine, reference compound], the inhibition constant Ki in assay [1] (DAT Ki) is 897 nM; in [1] (DAT pKi (mean +/- S.E.M)), 2400 nM; in assay [2] (NET Ki) it was 398 nM; in assay [2] (NET pKi (mean +/- S.E.M)) it was 2000 nM; in [4] (SERT Ki) it was 948 nM; in assay [4] (SERT pKi (mean +/- S.E.M)), 2750 nM.

On to `CN[C@H](C)Cc1ccc2c(c1)OCO2` [(−)-MDMA, 3,4-methylenedioxymethamphetamine, reference compound], for which the Ki in [1] (DAT Ki) is 2420 nM; in assay [1] (DAT pKi (mean +/- S.E.M)) it was 6170 nM; in assay [2] (NET Ki), 704 nM; in assay [2] (NET pKi (mean +/- S.E.M)), 3160 nM; in assay [4] (SERT Ki), 2310 nM.

Turning to `CN(C)CCC=C1c2ccccc2CCc2ccccc21` [Amitriptyline, reference compound], the Ki in assay [1] (DAT Ki) is 4640 nM; in [1] (DAT pKi (mean +/- S.E.M)), 9770 nM.

With `Cc1ccc(C(=O)C(C)NCc2ccccc2)cc1` (stereo not drawn) [Benzedrone, 2-(benzylamino)-1-(4-methylphenyl)propan-1-one hydrochloride], the inhibition constant Ki in assay [1] (setting [8]) is 1410 nM and 1490 nM; in assay [1] (setting [9]), 2290 nM; in [2] (setting [10]), 1220 nM; in assay [2] (setting [13]), 3160 nM; in assay [4] (setting [11]), above 10000 nM; in assay [4] (setting [14]), 17800 nM.

Turning to `c1ccc(C(c2ccccc2)C2CCCCN2)cc1` (stereo not drawn) [Desoxypipradrol, 2-benzhydrylpiperidine hydrochloride], the inhibitory constant (Ki) in assay [1] (setting [8]) is 32 nM; in assay [1] (setting [9]) it was 50.1 nM; in [2] (setting [10]), 213 nM; in [2] (setting [13]), 550 nM; in assay [4] (setting [11]) it was above 10000 nM; in assay [4] (setting [14]), 53700 nM.

In the case of `CCC(C)CC(C)N` (stereo not drawn) [Dimethylamylamine, 4-methylhexan-2-amine hydrochloride], the Ki in assay [1] (setting [8]) is above 10000 nM; in [1] (setting [9]), 18200 nM; in assay [2] (setting [10]), 649 nM; in assay [2] (setting [13]), 1700 nM; in assay [4] (setting [11]), above 10000 nM; in [4] (setting [14]) it was 178000 nM.

In the case of `CNC(C)C(=O)c1ccc(C)cc1.Cl` (stereo not drawn) [Mephedrone, 2-methylamino-1-(4-methylphenyl)propan-1-one hydrochloride], the inhibition constant (Ki) in assay [1] (setting [8]) was 543 nM; in [1] (setting [9]) it was 832 nM; in [2] (setting [10]), 511 nM; in assay [4] (setting [11]), 4940 nM; in assay [4] (setting [14]) it was 10200 nM. In [3], the “5-HT2B receptor affinity Ki” value is “submicromolar”. Besides, in [6], the “concentration inhibiting serotonin uptake” value is on record as “submicromolar”. Besides, the “concentration inhibiting dopamine uptake” value in [7] is “submicromolar”.

For `CNC(C)Cc1cccs1.Cl` (stereo not drawn) [Methiopropamine, methyl[(1-(2-thienyl)]propan-2-amine hydrochloride], the Ki in [1] (read-out: DAT Ki, inhibition of transporter uptake activity) was 577 nM; in assay [2] (read-out: NET Ki, inhibition of transporter uptake activity) it was 313 nM; in [4] (read-out: SERT Ki, inhibition of transporter uptake activity), above 10000 nM.

Turning to `CNC(C)Cc1cccs1.Cl` (stereo not drawn) [Methiopropamine], in assay [1] (setting [15]), the “DAT pKi (mean +/- S.E.M)” value is reported as 6.05±0.07. The “NET pKi (mean +/- S.E.M)” value in assay [2] (setting [15]) came out at 6.09±0.07. Also, in assay [4] (setting [15]), the “SERT pKi (mean +/- S.E.M)” value came to 4.14±0.07.

With `CC(NCc1ccccc1)C(=O)c1ccc2c(c1)OCO2` (stereo not drawn) [Methylenedioxy-N-benzylcathinone, 2-(benzylamino)-1-(3,4-methylenedioxyphenyl)propan-1-one], the inhibition constant (Ki) in assay [1] (setting [8]) was 637 nM; in assay [1] (setting [9]) it was 977 nM; in assay [2] (setting [10]) it was 1630 nM; in assay [2] (setting [13]) it was 4270 nM; in assay [4] (setting [11]) it was above 10000 nM; in assay [4] (setting [14]), 29500 nM.

In the case of `NC1Cc2cc3c(cc2C1)OCO3` [Methylenedioxy-aminoindane, 6,7-dihydro-5H-cyclopenta[f][1,3]benzodioxol-6-amine], the Ki is 4920 nM in [1] (setting [8]); 7590 nM in [1] (setting [9]); 641 nM in assay [2] (setting [10]); 1660 nM in assay [2] (setting [13]); above 10000 nM in assay [4] (SERT Ki); 11700 nM in assay [4] (SERT pKi (mean +/- S.E.M)).

On to `Cl.NC1CCc2cc3c(cc2C1)OCO3` (stereo not drawn) [Methylenedioxy-aminotetralin, 5,6,7,8-tetrahydrobenzo[f][1,3]benzodioxol-6-amine hydrochloride], for which the Ki was 4070 nM in assay [1] (setting [8]); 6310 nM in assay [1] (setting [9]); 894 nM in assay [2] (setting [10]); 2290 nM in assay [2] (setting [13]); 1100 nM in assay [4] (setting [11]); 2240 nM in [4] (setting [14]). In addition, the “5-HT2B receptor affinity Ki” value in assay [3] is given as “submicromolar”.

With `CCNC(C)C(=O)c1ccc(C)cc1` (stereo not drawn) [Methylethcathinone, 2-ethylamino-1-(4-methylphenyl)propan-1-one hydrochloride], the Ki was 565 nM in assay [1] (setting [8]); 832 nM in [1] (setting [9]); 1670 nM in [2] (setting [10]); 4370 nM in [2] (setting [13]); 1800 nM in assay [4] (setting [11]); 3720 nM in assay [4] (setting [14]).

As to `CCCC(C(=O)c1ccc2ccccc2c1)N1CCCC1.Cl` (stereo not drawn) [Naphyrone, 1-naphthalen-2-yl-2-pyrrolidin-1-ylpentan-1-one hydrochloride], the “DAT Ki” value in assay [1] was “submicromolar”. Also, the Ki in assay [1] (DAT Ki) is 53 nM; in [1] (DAT pKi (mean +/- S.E.M)) it was 52.5 nM; in assay [2] (NET Ki) it was 200 nM; on NET it was below 100 nM; at SERT, below 100 nM; in assay [4] (SERT Ki), 235 nM. Besides, the “NET Ki” value in [2] was “submicromolar”. In [3], the “5-HT2B receptor affinity Ki” value was “submicromolar”. Further, the “SERT Ki” value in assay [4] is “submicromolar”.

(Values after article PMC3582025 (European journal of pharmacology, 2012).)
